According to patent publication US11434479B2, “Sialic acid binding polypeptide” (priority 2017, dated 2022):
Changes are numbered by the printed parent chain. “Also recorded” adds a separate entry of the source.

What was measured:
[1] = target: T1, Streptococcus pneumoniae NanB fragment (residues 30-697, SEQ ID NO:4) variant Sia-PS1, Y653F (Streptococcus pneumoniae serotype 4, UniProt Q54727, Y653F); assay: Bio-layer Interferometry (BLI) steady-state binding to immobilized oligosaccharides; conditions: in words
T1 construct: exemplified by a NanB fragment (residues 30-697); made in house; host or cells: pET28a+ based plasmid
T1 sequence (Q54727 30-692 Y653F): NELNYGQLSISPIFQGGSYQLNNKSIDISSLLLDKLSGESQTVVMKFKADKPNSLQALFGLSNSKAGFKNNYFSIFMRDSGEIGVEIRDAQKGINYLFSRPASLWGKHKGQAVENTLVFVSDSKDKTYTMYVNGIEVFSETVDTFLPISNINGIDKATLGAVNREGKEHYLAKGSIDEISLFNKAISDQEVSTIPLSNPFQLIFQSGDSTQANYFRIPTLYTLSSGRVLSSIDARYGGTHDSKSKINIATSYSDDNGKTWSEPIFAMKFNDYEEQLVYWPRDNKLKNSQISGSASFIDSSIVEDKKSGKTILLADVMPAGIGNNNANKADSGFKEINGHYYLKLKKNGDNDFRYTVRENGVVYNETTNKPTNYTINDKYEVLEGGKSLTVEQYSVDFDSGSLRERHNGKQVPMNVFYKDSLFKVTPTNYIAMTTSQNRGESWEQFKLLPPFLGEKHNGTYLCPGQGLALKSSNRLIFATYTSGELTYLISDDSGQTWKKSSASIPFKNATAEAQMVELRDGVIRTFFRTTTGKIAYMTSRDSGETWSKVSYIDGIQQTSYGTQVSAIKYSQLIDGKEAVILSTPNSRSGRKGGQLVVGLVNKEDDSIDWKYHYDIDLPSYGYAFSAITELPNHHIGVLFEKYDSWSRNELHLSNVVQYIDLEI
Excerpt: (§1) Lsp=lactose (no sialic acid), 3′SL=α2,3-sialyllactose, 6′SL=α2,6-sialyllactose, GD3=GD3 oligosaccharide that contains a terminal α2,8-linked Neu5Ac residue and an internal α2,3-linked Neu5Ac residue.
(§2) The pan-specific sialic acid-recognizing affinity reagent of the invention is exemplified by a NanB fragment (residues 30-697; SEQ ID NO:4) with a single mutation. Exemplary mutation sites include Y653, D270, and E541. Exemplary pan-specific affinity reagents, each having a single mutation in the NanB GH domain as noted, are shown in Table 2 and include Sia-PS1 (Y653F), Sia-PS2 (D270A), Sia-PS3 (D270N), Sia-PS4 (E541A), and Sia-PS5 (E541Q). […] They reduce (Sia-PS2 and Sia-PS3) or effectively eliminate (Sia-PS1, Sia-PS4, and Sia-PS5) catalytic activity, and they broaden specificity for sialic acid ligand binding. The pan-specific sialic acid-recognizing affinity reagent we chose for further validation study was Sia-PS1 that contains the Y653F at active site residue Tyr653. This one mutation, which involves removal of a single hydroxyl group, not only eliminates enzyme activity, but astonishingly introduces pan-specific binding into the mutated, inactivated enzyme, despite its distance from the carbohydrate binding module (CBM) domain of the NanB.
(§3) The flowchart presented in FIG. 2 outlines schematically the methods employed in Example I and II to screen, optimize and select the Lectenz® candidates. The specificity and affinity of potential Lectenz® candidates is evaluated through structurally-guided site-specific and/or site-saturation mutagenesis assays designed to enable the selection of optimal clones. Bio-layer Interferometry (BLI) is used to determine the binding kinetics and affinities for binding to glycans and glycoproteins. Affinity chromatography is performed by immobilizing the Lectenz® candidates in a column format to evaluate their ability to fractionate sialylated- and asialo-glycans and glycoconjugates. All promising Lectenz® candidates are screened against the glycan array at the CFG, which currently contains over 600 O- and N-linked glycans.
(§4) Steady-state binding constants between Lectenz® candidates and sialic acid ligands were measured by BLI.

[2] = target: T2, Streptococcus pneumoniae NanB fragment (residues 30-697, SEQ ID NO:4) variant Sia-PS2, D270A (Streptococcus pneumoniae serotype 4, UniProt Q54727, D270A); assay: as above; conditions: in words
T2 construct: exemplified by a NanB fragment (residues 30-697); made in house; host or cells: pET28a+ based plasmid
T2 sequence (Q54727 30-692 D270A): T1 sequence (Q54727 30-692 Y653F) with D241A, F624Y
Excerpt: as §1, §2, §3, §4

SMILES | binding affinity [1] | binding affinity [2] | KD value [2]
CC(=O)N[C@H]1[C@H]([C@H](O)[C@H](O)CO)O[C@@](OC[C@H]2O[C@@H](O[C@H]3[C@H](O)[C@@H](O)C(O)O[C@@H]3CO)[C@H](O)[C@@H](O)[C@H]2O)(C(=O)O)C[C@@H]1O (stereo partly shown) [6′SL, 6′-sialyllactose (Neu5Acα2,6Galβ1, 4Glcβ, or 6′SL)] | micromolar or sub-micromolar; also recorded: sub-micromolar | micromolar or sub-micromolar | –
CC(=O)N[C@H]1[C@H]([C@H](O)[C@H](O)CO)O[C@@](O[C@H]2[C@@H](O)[C@@H](CO)O[C@@H](O[C@H]3[C@H](O)[C@@H](O)C(O)O[C@@H]3CO)[C@@H]2O)(C(=O)O)C[C@@H]1O (stereo partly drawn) [3′SL, α2,3-sialyllactose] | micromolar or sub-micromolar; also recorded: sub-micromolar | micromolar or sub-micromolar | higher KD value
CC(=O)N[C@H]1[C@H]([C@H](O)[C@H](O)CO)O[C@@](O[C@H](CO)[C@@H](O)[C@@H]2O[C@@](O[C@H]3[C@@H](O)[C@@H](CO)O[C@@H](O[C@H]4[C@H](O)[C@@H](O)C(O)O[C@@H]4CO)[C@@H]3O)(C(=O)O)C[C@H](O)[C@H]2NC(C)=O)(C(=O)O)C[C@@H]1O (stereo partly shown) [GD3, Neu5Acα2,8Neu5Acα2,3Galβ1, 4Glcβ] | micromolar or sub-micromolar; also recorded: sub-micromolar | micromolar or sub-micromolar | –
